According to US5104492A, “Recovery of carboxylic acids from water by precipitation from organic solutions” (The Regents of the University of California, priority 1990, dated 1992):

Legend:
[1] = Solubility in butyl ether (Example 4 repeated); type: physicochemical
Description: (§1) The use of MIBK plus 0.064 M tri-octyl/decyl amine as an organic phase was studied.
The experiment of Example 4 was repeated using butyl ether as organic solvent.

[2] = Solubility in octanol (Example 4 repeated); type: physicochemical
Description: as §1
The experiment of Example 4 was repeated using octanol as organic solvent.

[3] = Description: An aqueous solution of fumaric acid was extracted with methyl isobutyl ketone (MIBK).
[4] = Solubility in MIBK plus 0.064 M tri-octyl/decyl amine; type: physicochemical
Description: as §1

O=C(O)/C=C/C(=O)O [fumaric acid]
Acid Concentration ([1]; water 0.0005 moles/liter): 0.0023 mol/L | Acid Concentration ([1]; water 0.084 moles/liter): 0.0036 mol/L | Acid Concentration ([2]; water 0.066 moles/liter): 0.0614 mol/L | Acid Concentration ([2]; water 1.54 moles/liter): 0.0899 mol/L | Acid Concentration ([2]; water 2.24 moles/liter): 0.0961 mol/L | solubility relative to the level observed at saturation level of water [3]: less than 1/5th | amount of acid in MIBK extract ([3]; MIBK extract before stripping, […] by weight water): 0.0874 mol/L | solubility of the acid in the ketone ([3]; dry mibk): 15.8 mM | Acid Concentration ([4]; nearly anhydrous): 0.115 mol/L | Acid Concentration ([4]; water saturated): 0.158 mol/L
